Measurements reported in ChEMBL document CHEMBL1932923, “Structure-activity relationships for naturally occurring coumarins as β-secretase inhibitor” (Bioorg Med Chem, 2012).
Active and inactive are the calls of the source. The rule behind the calls is not given here. Non-standard residues stand in square brackets, D forms with d. Residues, ends and D or L forms follow the SMILES beside them. Sta = CC(C)C[C@H](N)[C@@H](O)CC(=O)O

What follows are compounds tested against T1, Beta-secretase 1 (Homo sapiens, UniProt P56817) (assay: Mixed type inhibition of recombinant human BACE1 using Rh-EVNLDAEFK as substrate by Dixon and Cornish-Bowden plots analysis).
T1 sequence (P56817 whole entry): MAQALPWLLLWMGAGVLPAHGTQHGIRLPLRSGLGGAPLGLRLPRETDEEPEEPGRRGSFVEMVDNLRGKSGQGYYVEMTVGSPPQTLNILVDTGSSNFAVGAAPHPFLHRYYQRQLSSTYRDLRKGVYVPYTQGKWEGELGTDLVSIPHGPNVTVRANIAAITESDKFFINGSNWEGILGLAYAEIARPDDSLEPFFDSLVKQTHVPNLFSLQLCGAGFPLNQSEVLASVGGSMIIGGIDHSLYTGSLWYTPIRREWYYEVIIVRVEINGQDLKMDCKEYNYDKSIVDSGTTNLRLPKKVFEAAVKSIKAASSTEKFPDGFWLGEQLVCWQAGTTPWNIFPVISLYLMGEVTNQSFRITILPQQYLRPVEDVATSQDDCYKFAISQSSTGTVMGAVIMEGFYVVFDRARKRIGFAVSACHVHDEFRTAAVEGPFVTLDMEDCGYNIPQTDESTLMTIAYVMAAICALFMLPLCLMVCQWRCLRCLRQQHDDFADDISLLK
For `COc1c2occc2c(OC/C=C(\C)CCC=C(C)C)c2ccc(=O)oc12`, the inhibition was “Active”.
In the case of `CC(C)=CCC/C(C)=C/COc1c2ccoc2cc2oc(=O)ccc12` [BERGAMOTTIN], the inhibition is reported as “Active”.

The compounds below were run against T1, Beta-secretase 1 (assay: Inhibition of recombinant human BACE1 assessed as dissociation constant of enzyme-inhibitor complex using Rh-EVNLDAEFK as substrate by Dixon and Cornish-Bowden plots analysis).
In the case of `COc1c2occc2c(OC/C=C(\C)CCC=C(C)C)c2ccc(=O)oc12`, the Ki is reported as 103 µM.
`CC(C)=CCC/C(C)=C/COc1c2occc2cc2ccc(=O)oc12` showed a Ki of 61.6 µM.
Work on `CC(C)=CCC/C(C)=C/COc1c2ccoc2cc2oc(=O)ccc12` [BERGAMOTTIN] yielded a Ki of 34.8 µM.

Each compound was assayed against T1, Beta-secretase 1 (assay: Inhibition of recombinant human BACE1 using Rh-EVNLDAEFK as substrate after 60 mins by fluorescence quenching assay).
For `O=c1ccc2cc3ccoc3c(O)c2o1` [XANTHOTOXOL], the IC50 was over 500 µM.
`COc1c2occc2cc2ccc(=O)oc12` [METHOXSALEN] was tested, and the IC50 was over 500 µM.
Work on `COc1c2occc2c(OC/C=C(\C)CCC=C(C)C)c2ccc(=O)oc12` yielded an IC50 of 9.9 µM.
For `CC1(C)O[C@H]1COc1c2ccoc2cc2oc(=O)ccc12` [OXYPEUCEDANIN], the IC50 was 359 µM.
`COc1c2ccoc2c(OC)c2oc(=O)ccc12` [ISOPIMPINELLIN] was tested, and the IC50 was over 500 µM.
`CC(C)=CCC/C(C)=C/COc1c2ccoc2c(O)c2oc(=O)ccc12` was tested, and the IC50 was over 500 µM.
For `CC(C)=CCOc1c2ccoc2c(O)c2oc(=O)ccc12`, the IC50 was over 500 µM.
`COc1c2occc2c(OCC=C(C)C)c2ccc(=O)oc12` [KINIDILIN] gave an IC50 of 344 µM.
`CC1(C)O[C@@H]1COc1c2occc2cc2ccc(=O)oc12` [HERACLENIN] showed an IC50 of 444 µM.
With `CC(C)(O)[C@@H]1Cc2c(ccc3ccc(=O)oc23)O1` [COLUMBIANETIN] the IC50 was over 500 µM.
Work on `O=c1ccc2c(O)c3ccoc3c(O)c2o1` yielded an IC50 of over 500 µM.
`O=c1ccc2cc3ccoc3cc2o1` [PSORALEN] showed an IC50 of over 500 µM.
`O=c1ccc2ccc3occc3c2o1` [ANGELICIN] was tested, and the IC50 was over 500 µM.
Compound `COc1ccc2ccc(=O)oc2c1CC=C(C)C` [OSTHOLE] has an IC50 of over 500 µM.
With `CC1(C)Oc2ccc3ccc(=O)oc3c2CC1O` (centres undefined) [LOMATIN] the IC50 was over 500 µM.
`CC(C)=CCc1cc2ccc(=O)oc2cc1O` [DEMETHYLSUBEROSIN] gave an IC50 of 413 µM.
`COc1c2ccoc2c(OC[C@H]2OC2(C)C)c2oc(=O)ccc12` [BYAKANGELICOL] was tested, and the IC50 was 105 µM.
`CC(C)=CCc1c(O)ccc2ccc(=O)oc12` [OSTHENOL] showed an IC50 of over 500 µM.
Compound `CC(C)=CCC/C(C)=C/COc1c2occc2cc2ccc(=O)oc12` has an IC50 of 20.4 µM.
With `CC(C)(O)[C@H](O)COc1c2ccoc2cc2oc(=O)ccc12` [OXYPEUCEDANIN HYDRATE] the IC50 was over 500 µM.
`CC(C)(O)[C@H](O)COc1c2occc2cc2ccc(=O)oc12` [HERACLENOL] was tested, and the IC50 was over 500 µM.
Work on `COc1c2ccoc2c(OCC=C(C)C)c2oc(=O)ccc12` [PHELLOPTERIN] yielded an IC50 of 143 µM.
For `CC(C)(O)[C@@H]1Cc2cc3ccc(=O)oc3cc2O1` [MARMESIN], the IC50 was over 500 µM.
With `COc1c2ccoc2c(OC/C=C(\C)CCC=C(C)C)c2oc(=O)ccc12` the IC50 was 11.1 µM.
`COc1ccc2ccc(=O)oc2c1` [HERNIARIN] showed an IC50 of over 500 µM.
For `O=c1ccc2ccccc2o1` [COUMARIN], the IC50 was over 500 µM.
`O=c1ccc2c(O)c3ccoc3cc2o1` [BERGAPTOL] gave an IC50 of over 500 µM.
`CC(C)=CCOc1ccc2ccc(=O)oc2c1` [7-PRENYLOXYCOUMARIN] gave an IC50 of over 500 µM.
`CC(C)=CCC/C(C)=C/COc1ccc2ccc(=O)oc2c1` [AURAPTENE] gave an IC50 of 345 µM.
Work on `C/C=C(\C)C(=O)O[C@H]1Cc2cc3ccc(=O)oc3cc2OC1(C)C` [DECURSINOL TIGLATE] yielded an IC50 of over 500 µM.
For `CC1(C)C=Cc2c(ccc3ccc(=O)oc23)O1` [SESALIN], the IC50 was over 500 µM.
Compound `CC(C)=CCOc1c2ccoc2c(OCC=C(C)C)c2oc(=O)ccc12` has an IC50 of over 500 µM.
For `COc1cc2ccc(=O)oc2cc1OC` [SCOPARONE], the IC50 was over 500 µM.
Work on `CC(C)=CCC/C(C)=C/COc1c2ccoc2cc2oc(=O)ccc12` [BERGAMOTTIN] yielded an IC50 of 32.2 µM.
In the case of `COc1c2ccoc2c(O)c2oc(=O)ccc12`, the IC50 is reported as over 500 µM.
`CC1(C)CCc2cc3ccc(=O)oc3cc2O1` [DIHYDROXANTHYLETIN] gave an IC50 of over 500 µM.
With `CC1(C)C=Cc2cc3ccc(=O)oc3cc2O1` [XANTHYLETIN] the IC50 was over 500 µM.
For `CC(C)=CC(=O)O[C@H]1Cc2cc3ccc(=O)oc3cc2OC1(C)C` [DECURSIN], the IC50 was over 500 µM.
`CC(C)=CCOc1c2occc2cc2ccc(=O)oc12` [PENTOSALEN] showed an IC50 of 91.8 µM.
In the case of `COc1cc2oc(=O)ccc2cc1CC=C(C)C` [SUBEROSIN], the IC50 is reported as over 500 µM.
Work on `CC1(C)Oc2cc3oc(=O)ccc3cc2C[C@@H]1O` [DECURSINOL] yielded an IC50 of over 500 µM.
In the case of `COc1c2ccoc2cc2oc(=O)ccc12` [BERGAPTEN], the IC50 is reported as over 500 µM.
With `COc1c2ccoc2c(OC[C@@H](O)C(C)(C)O)c2oc(=O)ccc12` [BYAKANGELICIN] the IC50 was 220 µM.
Work on `CC[C@H](C)[C@H](NC(=O)[C@H](CCC(=O)O)NC(=O)[C@H](CCC(=O)O)NC(=O)[C@@H](NC(=O)[C@@H](N)CCCCN)[C@@H](C)O)C(=O)N[C@@H](CO)C(=O)N[C@@H](CCC(=O)O)C(=O)N[C@H](C(=O)N[C@@H](CC(N)=O)C(=O)N[C@@H](CC(C)C)[C@@H](O)CC(=O)N[C@H](C(=O)N[C@@H](C)C(=O)N[C@@H](CCC(=O)O)C(=O)N[C@@H](Cc1ccccc1)C(=O)O)C(C)C)C(C)C` (H-KTEEISEVN[Sta]VAEF-OH) yielded an IC50 of 0.2 µM.
Work on `O=c1ccc2ccc(O)cc2o1` [UMBELLIFERONE] yielded an IC50 of over 500 µM.

Each compound was assayed against T1, Beta-secretase 1 (assay: Non-competitive inhibition of recombinant human BACE1 using Rh-EVNLDAEFK as substrate by Dixon and Cornish-Bowden plots analysis).
For `CC(C)=CCC/C(C)=C/COc1c2occc2cc2ccc(=O)oc12`, the inhibition was “Active”.

Each compound was assayed against T1, Beta-secretase 1 (assay: Inhibition of recombinant human BACE1 assessed as dissociation constant of enzyme-substrate-inhibitor complex using Rh-EVNLDAEFK as substrate by Dixon and Cornish-Bowden plots analysis).
`COc1c2occc2c(OC/C=C(\C)CCC=C(C)C)c2ccc(=O)oc12` gave a Ki of 13.7 µM.
For `CC(C)=CCC/C(C)=C/COc1c2occc2cc2ccc(=O)oc12`, the Ki was 61.9 µM.
Work on `CC(C)=CCC/C(C)=C/COc1c2ccoc2cc2oc(=O)ccc12` [BERGAMOTTIN] yielded a Ki of 0.7 µM.
